Experimental data: patent US11739098B2 (BRISTOL-MYERS SQUIBB COMPANY, priority 2017, dated 2023)

Tests used:
Type in all cases: cell-based
human TLR7 = target: T1, human TLR7 (Homo sapiens, UniProt Q9NYK1); assay: TLR7 inhibition reporter assay (HEK-Blue cells, SEAP reporter, gardiquimod stimulation); conditions: HEK-Blue cells overexpressing human TLR7, SEAP reporter, gardiquimod 7.5 μM
T1 construct: host or cells: HEK-Blue cells (HEK293-derived reporter line)
T1 sequence (Q9NYK1 27-1049): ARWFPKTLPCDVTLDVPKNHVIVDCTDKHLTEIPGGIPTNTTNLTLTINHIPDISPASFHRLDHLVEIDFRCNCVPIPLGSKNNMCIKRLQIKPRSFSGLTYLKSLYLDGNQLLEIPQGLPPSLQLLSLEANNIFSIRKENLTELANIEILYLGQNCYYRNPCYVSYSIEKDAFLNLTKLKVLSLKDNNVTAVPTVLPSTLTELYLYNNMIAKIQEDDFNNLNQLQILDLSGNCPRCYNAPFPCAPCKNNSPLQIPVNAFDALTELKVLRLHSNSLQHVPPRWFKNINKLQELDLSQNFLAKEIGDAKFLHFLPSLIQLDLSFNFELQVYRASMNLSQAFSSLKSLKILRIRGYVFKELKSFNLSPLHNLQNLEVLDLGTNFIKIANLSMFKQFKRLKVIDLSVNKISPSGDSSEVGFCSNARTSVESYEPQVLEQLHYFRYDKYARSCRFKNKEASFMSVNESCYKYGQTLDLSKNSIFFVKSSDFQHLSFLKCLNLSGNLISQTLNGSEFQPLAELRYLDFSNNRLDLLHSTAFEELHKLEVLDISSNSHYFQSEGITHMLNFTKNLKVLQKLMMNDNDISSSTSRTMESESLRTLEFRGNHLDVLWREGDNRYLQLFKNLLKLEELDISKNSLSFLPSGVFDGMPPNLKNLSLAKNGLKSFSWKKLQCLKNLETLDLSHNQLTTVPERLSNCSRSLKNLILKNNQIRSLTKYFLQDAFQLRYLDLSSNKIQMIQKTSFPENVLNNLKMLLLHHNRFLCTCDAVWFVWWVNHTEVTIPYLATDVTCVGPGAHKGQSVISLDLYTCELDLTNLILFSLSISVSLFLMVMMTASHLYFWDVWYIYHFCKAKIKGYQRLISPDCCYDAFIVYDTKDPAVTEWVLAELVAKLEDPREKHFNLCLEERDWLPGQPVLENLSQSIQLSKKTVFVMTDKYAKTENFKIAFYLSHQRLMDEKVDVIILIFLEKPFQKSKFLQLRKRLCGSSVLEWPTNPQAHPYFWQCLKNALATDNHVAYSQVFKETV
How it was run: (§1)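 After 22 h at 37 °C, SEAP secretion was measured from human TLR7-, TLR8- or TLR9-expressing HEK-Blue reporter cells given compound (0.05 nM–50 μM) 30 min before agonist: 7.5 μM gardiquimod, 15.9 μM R848 or 5 nM ODN2006 respectively. Percent inhibition referenced to agonist-plus-DMSO and known-inhibitor wells.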

human TLR8 = target: T2, human TLR8 (Homo sapiens, UniProt Q9NR97); assay: TLR8 inhibition reporter assay (HEK-Blue cells, SEAP reporter, R848 stimulation); conditions: HEK-Blue cells overexpressing human TLR8, SEAP reporter, R848 15.9 μM
T2 construct: host or cells: HEK-Blue cells (HEK293-derived reporter line)
T2 sequence (Q9NR97 27-1041): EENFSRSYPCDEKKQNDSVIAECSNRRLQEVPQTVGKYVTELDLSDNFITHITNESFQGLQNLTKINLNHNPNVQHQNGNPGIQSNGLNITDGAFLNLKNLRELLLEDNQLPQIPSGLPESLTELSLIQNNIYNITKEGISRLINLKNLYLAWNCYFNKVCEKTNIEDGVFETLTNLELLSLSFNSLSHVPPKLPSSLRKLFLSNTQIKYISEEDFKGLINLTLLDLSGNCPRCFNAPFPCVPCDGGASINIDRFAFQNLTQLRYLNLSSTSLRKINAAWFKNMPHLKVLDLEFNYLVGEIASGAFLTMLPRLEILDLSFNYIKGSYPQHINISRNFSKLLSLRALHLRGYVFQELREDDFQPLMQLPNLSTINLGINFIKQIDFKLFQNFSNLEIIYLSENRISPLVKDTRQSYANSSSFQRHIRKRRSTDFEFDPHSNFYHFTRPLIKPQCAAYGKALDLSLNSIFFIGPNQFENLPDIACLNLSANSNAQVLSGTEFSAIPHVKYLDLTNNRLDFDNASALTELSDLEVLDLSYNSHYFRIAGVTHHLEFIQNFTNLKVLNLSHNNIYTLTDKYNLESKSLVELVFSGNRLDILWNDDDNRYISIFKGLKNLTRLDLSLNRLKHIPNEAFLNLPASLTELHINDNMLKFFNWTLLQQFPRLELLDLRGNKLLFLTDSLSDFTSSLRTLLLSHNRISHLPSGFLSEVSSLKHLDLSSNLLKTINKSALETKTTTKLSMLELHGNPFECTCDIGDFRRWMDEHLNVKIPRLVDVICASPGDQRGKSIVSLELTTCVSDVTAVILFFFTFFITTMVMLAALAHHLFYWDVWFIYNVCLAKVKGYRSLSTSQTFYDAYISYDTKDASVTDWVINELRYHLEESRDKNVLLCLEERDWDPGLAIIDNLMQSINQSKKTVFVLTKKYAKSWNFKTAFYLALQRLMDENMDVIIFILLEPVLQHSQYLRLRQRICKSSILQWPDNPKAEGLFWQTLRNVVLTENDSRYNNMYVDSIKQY
How it was run: as §1

human TLR9 = target: T3, human TLR9 (Homo sapiens, UniProt Q9NR96); assay: TLR9 inhibition reporter assay (HEK-Blue cells, SEAP reporter, ODN2006 stimulation); conditions: HEK-Blue cells overexpressing human TLR9, SEAP reporter, ODN2006 5 nM
T3 construct: host or cells: HEK-Blue cells (HEK293-derived reporter line)
T3 sequence (Q9NR96 26-1032): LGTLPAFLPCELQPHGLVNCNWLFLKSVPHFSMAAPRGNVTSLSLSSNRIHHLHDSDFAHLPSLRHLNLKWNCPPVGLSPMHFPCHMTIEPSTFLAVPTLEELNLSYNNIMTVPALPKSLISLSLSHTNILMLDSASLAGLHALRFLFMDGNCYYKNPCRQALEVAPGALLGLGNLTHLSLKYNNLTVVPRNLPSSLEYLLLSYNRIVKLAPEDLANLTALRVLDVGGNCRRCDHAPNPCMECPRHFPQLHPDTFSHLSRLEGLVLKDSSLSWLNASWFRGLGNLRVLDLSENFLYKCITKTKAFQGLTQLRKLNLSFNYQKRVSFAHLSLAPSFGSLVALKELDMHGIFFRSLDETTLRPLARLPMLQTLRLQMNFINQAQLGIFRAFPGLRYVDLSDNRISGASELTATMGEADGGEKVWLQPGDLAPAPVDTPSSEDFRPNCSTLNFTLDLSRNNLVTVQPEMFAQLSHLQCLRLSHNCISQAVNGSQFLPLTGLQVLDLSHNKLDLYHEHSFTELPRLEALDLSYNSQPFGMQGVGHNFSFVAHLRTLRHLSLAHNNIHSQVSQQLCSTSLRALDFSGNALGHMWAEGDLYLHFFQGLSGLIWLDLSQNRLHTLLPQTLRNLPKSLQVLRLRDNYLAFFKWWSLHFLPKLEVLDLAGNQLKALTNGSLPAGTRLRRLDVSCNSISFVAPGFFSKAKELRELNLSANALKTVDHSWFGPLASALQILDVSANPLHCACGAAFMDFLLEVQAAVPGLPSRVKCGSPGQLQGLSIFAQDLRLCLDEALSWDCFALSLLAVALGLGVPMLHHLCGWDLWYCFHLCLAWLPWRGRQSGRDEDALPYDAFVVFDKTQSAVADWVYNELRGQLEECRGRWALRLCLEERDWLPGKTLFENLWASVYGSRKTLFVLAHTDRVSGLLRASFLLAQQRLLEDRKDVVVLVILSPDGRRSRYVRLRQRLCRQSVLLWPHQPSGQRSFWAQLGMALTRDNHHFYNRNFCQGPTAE
How it was run: as §1

IC50 (human TLR7) [nM]	IC50 (human TLR8) [nM]	IC50 (human TLR9) [nM]	Compound
< 100	< 100	1000 to 50000	CC(C)c1c(-c2cn(C)c3ncncc23)[nH]c2ccc(C3CCN(C(=O)CN(C)C)CC3)cc12 [Example 456, 2-(dimethylamino)-1-(4-(3-isopropyl-2-(7-methyl-7H-pyrrolo[2,3-d]pyrimidin-5-yl)-1H-indol-5-yl)piperidin-1-yl)ethan-1-one]
< 100	100 to 1000	< 100	Cc1cn2cc(-c3[nH]c4ccc(C5CCN(CC(=O)N(C)C)CC5)cc4c3C(C)C)c(C)cc2n1 [Example 375, 2-(4-(2-(2,7-dimethylimidazo[1,2-a]pyridin-6-yl)-3-isopropyl-1H-indol-5-yl)piperidin-1-yl)-N,N-dimethylacetamide]
< 100	1000 to 50000	1000 to 50000	CC(C)c1c(-c2ccc3ncccc3c2)[nH]c2ccc(C3CCNCC3)cc12 [Example 190, 6-(3-isopropyl-5-(piperidin-4-yl)-1H-indol-2-yl)quinoline]
100 to 1000	< 100	1000 to 50000	CCc1c(-c2ccnc3[nH]ncc23)[nH]c2ccc(C3CCN(Cc4c(C)noc4C)CC3)cc12 [Example 893, 4-((4-(3-ethyl-2-(1H-pyrazolo[3,4-b]pyridin-4-yl)-1H-indol-5-yl)piperidin-1-yl)methyl)-3,5-dimethylisoxazole]
100 to 1000	100 to 1000	100 to 1000	COc1cc(-c2[nH]c3ccc(C4CCN(C(=O)CN(C)C)CC4)cc3c2C(C)C)cc2nc(C)cn12 [Example 541, 2-(dimethylamino)-1-(4-(3-isopropyl-2-(5-methoxy-2-methylimidazo[1,2-a]pyridin-7-yl)-1H-indol-5-yl)piperidin-1-yl)ethan-1-one]
100 to 1000	100 to 1000	1000 to 50000	CCc1c(-c2ccnc3cnn(C)c23)[nH]c2ccc(C3CCNCC3)cc12 [Example 41, 7-(3-ethyl-5-(piperidin-4-yl)-1H-indol-2-yl)-1-methyl-1H-pyrazolo[4,3-b]pyridine]
< 100	100 to 1000	1000 to 50000	CN(C)C(=O)CN1CCC(c2ccc3[nH]c(-c4ccn5ccnc5c4)c(CC(F)F)c3c2)CC1 [Example 445, 2-(4-(3-(2,2-difluoroethyl)-2-(imidazo[1,2-a]pyridin-7-yl)-1H-indol-5-yl)piperidin-1-yl)-N,N-dimethylacetamide]
< 100	< 100	< 100	Cc1cc2nccn2cc1-c1[nH]c2ccc(C3CCN(C4CCN(C(C)C)CC4)CC3)cc2c1C(C)C [Example 841, 6-(3-isopropyl-5-(1′-isopropyl-[1,4′-bipiperidin]-4-yl)-1H-indol-2-yl)-7-methylimidazo[1,2-a]pyridine]
100 to 1000	< 100	1000 to 50000	CCc1c(-c2ccnc3[nH]ncc23)[nH]c2ccc(C3CCN(Cc4cocn4)CC3)cc12 [Example 920, 4-((4-(3-ethyl-2-(1H-pyrazolo[3,4-b]pyridin-4-yl)-1H-indol-5-yl)piperidin-1-yl)methyl)oxazole]
100 to 1000	100 to 1000	< 100	Cc1cc(-c2[nH]c3ccc(C4CCN(C(CO)CO)CC4)cc3c2C(C)C)cc2nccn12 [Example 755, 2-(4-(3-isopropyl-2-(5-methylimidazo[1,2-a]pyridin-7-yl)-1H-indol-5-yl)piperidin-1-yl)propane-1,3-diol]
100 to 1000	< 100	1000 to 50000	CCc1c(-c2ccnc3[nH]ncc23)[nH]c2ccc(C3CCN(Cc4coc(C)n4)CC3)cc12 [Example 917, 4-((4-(3-ethyl-2-(1H-pyrazolo[3,4-b]pyridin-4-yl)-1H-indol-5-yl)piperidin-1-yl)methyl)-2-methyloxazole]
< 100	100 to 1000	1000 to 50000	CC(C)c1c(-c2cnc3c(cnn3C)c2)[nH]c2ccc(C3CCN(C(=O)CN(C)C)CC3)cc12 [Example 504, 2-(dimethylamino)-1-(4-(3-isopropyl-2-(1-methyl-1H-pyrazolo[3,4-b]pyridin-5-yl)-1H-indol-5-yl)piperidin-1-yl)ethan-1-one]
< 100	< 100	100 to 1000	COc1cc(-c2[nH]c3ccc(C4CCN(CC(=O)N(C)C)CC4)cc3c2C(C)C)cn2ccnc12 [Example 433, 2-(4-(3-isopropyl-2-(8-methoxyimidazo[1,2-a]pyridin-6-yl)-1H-indol-5-yl)piperidin-1-yl)-N,N-dimethylacetamide]
< 100	100 to 1000	100 to 1000	CC(C)c1c(-c2cc(C(C)(C)O)c3nccn3c2)[nH]c2ccc(C3CCN(CC(=O)N(C)C)CC3)cc12 [Example 343, 2-(4-(2-(8-(2-hydroxypropan-2-yl)imidazo[1,2-a]pyridin-6-yl)-3-isopropyl-1H-indol-5-yl)piperidin-1-yl)-N,N-dimethylacetamide]
